# Like-named read-outs stand apart in the source and are kept apart here.
# What was measured:
# K. pneumoniae A-15130 = experiment: MIC, tube dilution, Klebsiella pneumoniae A15130; type: cell-based; details: Klebsiella pneumoniae, A15130, K. pneumoniae A15130; overnight 37° C.; read-out: Minimum Inhibitory Concentration (M.I.C.)
# Text: (§1) Representative compounds of the present invention were subjected to in vitro antibiotic screening against a variety of microorganisms.
# [1] = system: Staph. aureus (Pen-Res) A-9606; experiment: MIC, tube dilution, Staphylococcus aureus A9606 (Pen-Res); type: cell-based; details: Staphylococcus aureus, Staph. aureus A9606 (Pen-Res); overnight 37° C.; read-out: Minimum Inhibitory Concentration (M.I.C.)
# Text: as §1
# Ser. marcescens A-20019 = experiment: MIC, tube dilution, Serratia marcescens A20019; type: cell-based; details: Serratia marcescens, A20019, Serratia marcescens A20019; overnight 37° C.; read-out: Minimum Inhibitory Concentration (M.I.C.)
# Text: as §1
# [2] = system: Staph. aureus (Meth-Res) A-15097; experiment: MIC, tube dilution, Staphylococcus aureus A15097 (Meth-Res); type: cell-based; details: Staphylococcus aureus, Staph. aureus A15097 (Meth-Res); overnight 37° C.; read-out: Minimum Inhibitory Concentration (M.I.C.)
# Text: as §1
# E. coli A-20341-1 = experiment: MIC, tube dilution, Escherichia coli A20341-1; type: cell-based; details: Escherichia coli, A203411, E. coli A20341-1; overnight 37° C.; read-out: Minimum Inhibitory Concentration (M.I.C.)
# Text: as §1
# Str. faecalis A-20688 = experiment: MIC, tube dilution, Streptococcus faecalis A20688; type: cell-based; details: Enterococcus faecalis, A20688, Str. faecalis A20688; overnight 37° C.; read-out: Minimum Inhibitory Concentration (M.I.C.)
# Text: as §1
# Ent. cloacae A-9656 = experiment: MIC, tube dilution, Enterobacter cloacae A9656; type: cell-based; details: Enterobacter cloacae, A9656, Enterobacter cloacae A9656; overnight 37° C.; read-out: Minimum Inhibitory Concentration (M.I.C.)
# Text: as §1
# Ps. aeruginosa A-9843A = experiment: MIC, tube dilution, Pseudomonas aeruginosa A9843A; type: cell-based; details: Pseudomonas aeruginosa, A9843A, read-out: Minimum Inhibitory Concentration (M.I.C.), Pseudomonas aeruginosa A9843A; overnight 37° C.
# Text: as §1
# Ent. cloacae A-9659 = experiment: MIC, tube dilution, Enterobacter cloacae A9659; type: cell-based; details: Enterobacter cloacae, A9659, Enterobacter cloacae A9659; overnight 37° C.; read-out: Minimum Inhibitory Concentration (M.I.C.)
# Text: as §1
# Proteus rettgeri A21203 = experiment: MIC, tube dilution, Proteus rettgeri A21203; type: cell-based; details: Providencia rettgeri, A21203, Proteus rettgeri A21203; overnight 37° C.; read-out: Minimum Inhibitory Concentration (M.I.C.)
# Text: as §1
# Staph. aureus A-9537 = experiment: MIC, tube dilution, Staphylococcus aureus A9537; type: cell-based; details: Staphylococcus aureus, A9537, Staph. aureus A9537; overnight 37° C., Nutrient Broth; read-out: Minimum Inhibitory Concentration (M.I.C.)
# Text: as §1
# Ps. aeruginosa A-21213 = experiment: MIC, tube dilution, Pseudomonas aeruginosa A21213; type: cell-based; details: Pseudomonas aeruginosa, A21213, Pseudomonas aeruginosa A21213; overnight 37° C.; read-out: Minimum Inhibitory Concentration (M.I.C.)
# Text: as §1
# [3] = system: Hemophilus influenzae A9833; experiment: MIC, tube dilution, Hemophilus influenzae A9833; type: cell-based; details: Haemophilus influenzae; Hemophilus influenzae A9833; overnight 37° C.; read-out: Minimum Inhibitory Concentration (M.I.C.)
# Text: as §1
# Pr. mirabilis A-9900 = experiment: MIC, tube dilution, Proteus mirabilis A9900; type: cell-based; details: Proteus mirabilis, A9900, Proteus mirabilis A9900; overnight 37° C.; read-out: Minimum Inhibitory Concentration (M.I.C.)
# Text: as §1
# E. coli A-15119 = experiment: MIC, tube dilution, Escherichia coli A15119; type: cell-based; details: Escherichia coli, A15119, E. coli A15119; overnight 37° C.; read-out: Minimum Inhibitory Concentration (M.I.C.)
# Text: as §1
# Str. pyogenes A-9604 = experiment: MIC, tube dilution, Streptococcus pyogenes A9604; type: cell-based; details: Streptococcus pyogenes, A9604, Str. pyogenes A9604; overnight 37° C., Nutrient Broth; read-out: Minimum Inhibitory Concentration (M.I.C.)
# Text: as §1
# [4] = system: Klebsiella species A20468; experiment: MIC, tube dilution, Klebsiella species A20468; type: cell-based; details: Klebsiella species (K. pneumoniae) A20468; overnight 37° C.; read-out: Minimum Inhibitory Concentration (M.I.C.)
# Text: as §1
# Pr. morganii A-15153 = experiment: MIC, tube dilution, Proteus morganii A15153; type: cell-based; details: Morganella morganii, A15153, Proteus morganii A15153; overnight 37° C.; read-out: Minimum Inhibitory Concentration (M.I.C.)
# Text: as §1
# Str. pneumoniae A-9585 = experiment: MIC, tube dilution, Streptococcus pneumoniae A9585; type: cell-based; details: Streptococcus pneumoniae, A9585, Str. pneumoniae A9585; overnight 37° C., Nutrient Broth; read-out: Minimum Inhibitory Concentration (M.I.C.)
# Text: as §1
# [5] = system: Staph. aureus A-9537 and 50% serum; experiment: MIC, tube dilution, Staph. aureus A9537 + 50% serum; type: cell-based, Staphylococcus aureus; details: Staphylococcus aureus, overnight 37° C., read-out: Minimum Inhibitory Concentration (M.I.C.)
# Text: as §1
# [6] = Mouse blood levels after intramuscular administration; type: in vivo; details: average of 6 mice, read-out: Mouse blood level
# Experimental: Mouse blood levels after intramuscular administration of representative compounds of the present invention were determined and are reported in the table below.
# Proteus vulgaris A21559 = experiment: MIC, tube dilution, Proteus vulgaris A21559; type: cell-based; details: Proteus vulgaris, A21559, Proteus vulgaris A21559; overnight 37° C.; read-out: Minimum Inhibitory Concentration (M.I.C.)
# Text: as §1
# S. aureus A9537 = experiment: In vivo protection of mice, lethal infection with S. aureus A9537; details: Staphylococcus aureus, 2 treatments, 1 × 10^6 organisms, read-out: PD50
# Experimental: (§2) Representative compounds of the present invention were also tested in vivo in mice and their PD50 (dose of compound in mg/kg required to protect 50% of the treated mice against an otherwise lethal infection of a micro-organism) values determined with respect to the test organisms shown below.
# E. coli A15119 = experiment: In vivo protection of mice, lethal infection with E. coli A15119; details: Escherichia coli, IM, 2 treatments, 7 × 10^5 organisms, read-out: PD50
# Experimental: as §2
# [7] = stability of isolated product (light, handling); type: physicochemical
# β-lactamases = details: literature; cited from earlier work
# [8] = system: Gram-negative and Gram-positive organisms; details: literature; cited from earlier work
Structure (SMILES),MIC (K. pneumoniae A-15130) [µg/mL],MIC [1] [µg/mL],MIC (Ser. marcescens A-20019) [µg/mL],MIC [2] [µg/mL],MIC (E. coli A-20341-1) [µg/mL],MIC (Str. faecalis A-20688) [µg/mL],MIC (Ent. cloacae A-9656) [µg/mL],MIC (Ps. aeruginosa A-9843A) [µg/mL],MIC (Ent. cloacae A-9659) [µg/mL],MIC (Proteus rettgeri A21203) [µg/mL],MIC (Staph. aureus A-9537) [µg/mL],MIC (Ps. aeruginosa A-21213) [µg/mL],MIC (Pr. mirabilis A-9900) [µg/mL],MIC (E. coli A-15119) [µg/mL],MIC (Str. pyogenes A-9604) [µg/mL],MIC [4] [µg/mL],MIC (Pr. morganii A-15153) [µg/mL],MIC (Str. pneumoniae A-9585) [µg/mL],MIC [5] [µg/mL],MIC (Proteus vulgaris A21559) [µg/mL],further results
O=C(O)C1=C(CCCNO)SC2CC(=O)N12 (stereo not shown) [Example 26],8,8,1,125,63,63,1,1,2,2,0.13,125,1,0.5,0.06,> 125,1,0.016,4,,MIC [3]: 125 µg/mL
"N[C@H]1C[C@@H](C2=C(C(=O)O)N3C(=O)C[C@H]3S2)C1 [Example 78, 2-(cis-3'-Aminocyclobutyl)penem-3-carboxylic Acid]",4,16,4,8,16,16,4,16,4,4,0.13,> 125,4,2,0.06,> 125,8,0.03,2,4,"concentration at 10 min ([6]; 10 minutes after IM 40 mg/kg): 29700 ng/mL; concentration at 20 min ([6]; 20 minutes after IM 40 mg/kg): 19300 ng/mL; concentration at 0.5 h ([6]; 30 minutes after IM 40 mg/kg): 12600 ng/mL; concentration at 0.75 h ([6]; 45 minutes after IM 40 mg/kg): 6600 ng/mL; concentration at 1 h ([6]; 60 minutes after IM 40 mg/kg): < 5000 ng/mL; concentration at 1.5 h ([6]; 90 minutes after IM 40 mg/kg): < 5000 ng/mL; concentration at 2 h ([6]; 120 minutes after IM 40 mg/kg): < 5000 ng/mL; ED50 (S. aureus A9537; A9537, im, IM): 0.63 mg/kg; ED50 (S. aureus A9537; A9537, po, PO): 2.5 mg/kg; ED50 (E. coli A15119): 28 mg/kg"
"NC1CC1C1=C(C(=O)O)N2C(=O)CC2S1 (stereo not drawn) [Example 99, 2-(trans-2-Aminocyclopropyl)-penem-3-carboxylic Acid]",32,4,16,32,63,63,16,> 63,16,8,1,> 63,8,8,1,> 63,16,1,16,16,stability [7]: suspected to be very light sensitive
O=C(O)C1=CSC2CC(=O)N12 (stereo not shown) [drawing 10],,,,,,,,,,,,,,,,,,,,,β-lactamase inhibition (β-lactamases): no β-lactamase inhibitory activity
C[C@@H](O)[C@H]1C(=O)N2C(C(=O)O)=C(SCCN)C[C@H]12 [thienamycin],,,,,,,,,,,,,,,,,,,,,antibacterial activity [8]: highly potent broad-spectrum antibiotic
